Data published in PubChem BioAssay (NCI).
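Cultured in 96-well plates, cells were exposed to test compound for 48 hours across five concentrations. Definition used: TGI = concentration required for complete inhibition of growth.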

What was measured:
Assay in all cases: DTP human tumour cell line panel, 48 h
786-0 renal = tested on: 786-0 renal
A549 NSCLC = tested on: A549 NSCLC
ACHN renal = tested on: ACHN renal
CAKI-1 renal = tested on: CAKI-1 renal
CCRF-CEM leukemia = tested on: CCRF-CEM leukemia
COLO 205 colon = tested on: COLO 205 colon
DLD-1 colon = tested on: DLD-1 colon
DMS 114 small cell lung = tested on: DMS 114 small cell lung
DMS 273 small cell lung = tested on: DMS 273 small cell lung
EKVX NSCLC = tested on: EKVX NSCLC
HCC-2998 colon = tested on: HCC-2998 colon
HCT-116 colon = tested on: HCT-116 colon
HCT-15 colon = tested on: HCT-15 colon
HL-60(TB) leukemia = tested on: HL-60(TB) leukemia
HOP-62 NSCLC = tested on: HOP-62 NSCLC
HOP-92 NSCLC = tested on: HOP-92 NSCLC
HT29 colon = tested on: HT29 colon
IGROV1 ovarian = tested on: IGROV1 ovarian
K-562 leukemia = tested on: K-562 leukemia
KM12 colon = tested on: KM12 colon
KM20L2 colon = tested on: KM20L2 colon
LOX IMVI melanoma = tested on: LOX IMVI melanoma
LXFL 529 NSCLC = tested on: LXFL 529 NSCLC
M14 melanoma = tested on: M14 melanoma
M19-MEL melanoma = tested on: M19-MEL melanoma
MALME-3M melanoma = tested on: MALME-3M melanoma
MOLT-4 leukemia = tested on: MOLT-4 leukemia
NCI-H226 lung = tested on: NCI-H226 lung
NCI-H23 lung = tested on: NCI-H23 lung
NCI-H460 lung = tested on: NCI-H460 lung
NCI-H522 lung = tested on: NCI-H522 lung
OVCAR-3 ovarian = tested on: OVCAR-3 ovarian
OVCAR-5 ovarian = tested on: OVCAR-5 ovarian
OVCAR-8 ovarian = tested on: OVCAR-8 ovarian
RPMI-8226 leukemia = tested on: RPMI-8226 leukemia
RXF 393 renal = tested on: RXF 393 renal
RXF-631 renal = tested on: RXF-631 renal
SF-268 CNS = tested on: SF-268 CNS
SF-295 CNS = tested on: SF-295 CNS
SF-539 CNS = tested on: SF-539 CNS
SK-MEL-2 melanoma = tested on: SK-MEL-2 melanoma
SK-OV-3 ovarian = tested on: SK-OV-3 ovarian
SN12C renal = tested on: SN12C renal
SNB-19 CNS = tested on: SNB-19 CNS
SNB-75 CNS = tested on: SNB-75 CNS
SNB-78 CNS = tested on: SNB-78 CNS
SR leukemia = tested on: SR leukemia
SW-620 colon = tested on: SW-620 colon
U251 CNS = tested on: U251 CNS
UACC-257 melanoma = tested on: UACC-257 melanoma
UACC-62 melanoma = tested on: UACC-62 melanoma
UO-31 renal = tested on: UO-31 renal
XF 498 CNS = tested on: XF 498 CNS

O=c1cccccc1NCCCCCCCCNc1cccccc1=O
TGI (786-0 renal): > 100 µM
TGI (A549 NSCLC): > 100 µM
TGI (ACHN renal): > 100 µM
TGI (CAKI-1 renal): > 100 µM
TGI (CCRF-CEM leukemia): > 100 µM
TGI (COLO 205 colon): > 100 µM
TGI (DLD-1 colon): > 100 µM
TGI (DMS 114 small cell lung): > 100 µM
TGI (DMS 273 small cell lung): > 100 µM
TGI (EKVX NSCLC): > 100 µM
TGI (HCC-2998 colon): > 100 µM
TGI (HCT-116 colon): > 100 µM
TGI (HCT-15 colon): > 100 µM
TGI (HL-60(TB) leukemia): > 100 µM
TGI (HOP-62 NSCLC): > 100 µM
TGI (HOP-92 NSCLC): 87.3 µM
TGI (HT29 colon): > 100 µM
TGI (IGROV1 ovarian): > 100 µM
TGI (K-562 leukemia): > 100 µM
TGI (KM12 colon): > 100 µM
TGI (KM20L2 colon): > 100 µM
TGI (LOX IMVI melanoma): > 100 µM
TGI (LXFL 529 NSCLC): > 100 µM
TGI (M14 melanoma): > 100 µM
TGI (M19-MEL melanoma): > 100 µM
TGI (MALME-3M melanoma): > 100 µM
TGI (MOLT-4 leukemia): > 100 µM
TGI (NCI-H226 lung): > 100 µM
TGI (NCI-H23 lung): > 100 µM
TGI (NCI-H460 lung): > 100 µM
TGI (NCI-H522 lung): > 100 µM
TGI (OVCAR-3 ovarian): > 100 µM
TGI (OVCAR-5 ovarian): > 100 µM
TGI (OVCAR-8 ovarian): > 100 µM
TGI (RPMI-8226 leukemia): > 100 µM
TGI (RXF 393 renal): > 100 µM
TGI (RXF-631 renal): > 100 µM
TGI (SF-268 CNS): > 100 µM
TGI (SF-295 CNS): > 100 µM
TGI (SF-539 CNS): > 100 µM
TGI (SK-MEL-2 melanoma): > 100 µM
TGI (SK-OV-3 ovarian): > 100 µM
TGI (SN12C renal): > 100 µM
TGI (SNB-19 CNS): > 100 µM
TGI (SNB-75 CNS): > 100 µM
TGI (SNB-78 CNS): > 100 µM
TGI (SR leukemia): > 100 µM
TGI (SW-620 colon): > 100 µM
TGI (U251 CNS): > 100 µM
TGI (UACC-257 melanoma): > 100 µM
TGI (UACC-62 melanoma): > 100 µM
TGI (UO-31 renal): > 100 µM
TGI (XF 498 CNS): > 100 µM
